Assays:
Type in all cases: in vivo
[1] = system: barnyardgrass (Echinochloa crus-galli); assay: Test B flooded paddy test; conditions: Echinochloa crus-galli, 250 g ai/ha, Flood; 0 to 100 scale where 0 is no effect and 100 is complete control; read-out: Barnyardgrass plant response rating
Summary of the method: (§1)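 Percent control, visually estimated after 13–15 d in the greenhouse on a 0–100 basis, compares treated pots with untreated ones; compound was put into paddy water 3 cm above the soil when plants had two leaves.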

[2] = system: sedge, umbrella (small-flower umbrella sedge, Cyperus difformis); assay: Test B flooded paddy test; conditions: Cyperus difformis, 250 g ai/ha, Flood; 0 to 100 scale where 0 is no effect and 100 is complete control; read-out: Sedge, Umbrella plant response rating
Summary of the method: as §1

[3] = system: rice (Oryra sativa); assay: Test B flooded paddy test; conditions: Oryza sativa, 250 g ai/ha, Flood; 0 to 100 scale where 0 is no effect and 100 is complete control; read-out: Rice plant response rating
Summary of the method: as §1

[4] = system: ducksalad (Heteranthera limosa); assay: Test B flooded paddy test; conditions: Heteranthera limosa, 250 g ai/ha, Flood; 0 to 100 scale where 0 is no effect and 100 is complete control; read-out: Ducksalad plant response rating
Summary of the method: as §1

[5] = system: giant foxtail (Setaria faberii); assay: Test A preemergence; conditions: Setaria faberi, pre-emergence, 240 h, Preemergence; for pest or weed control at 31 g/ha: 31 g ai/ha, 0 to 100 scale where 0 is no effect and 100 is complete control, read-out: Foxtail, Giant plant response rating; for pest or weed control at 125 g/ha: 125 g ai/ha, visual injury rating after approximately 10 d, read-out: Foxtail, Giant plant response rating (0 to 100 scale, 0 is no effect, 100 is complete control)
Summary of the method: (§2)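 Each rating is a visual injury score from 0 to 100 given about 10 d after treatment, judged against untreated controls kept alongside in the greenhouse. In loam soil–sand blend, seeds got a preemergence directed soil spray, while postemergence plants were 2 to 10 cm tall at spraying.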

[6] = system: Kochia (Kochia scoparia); assay: Test A preemergence; conditions: Bassia scoparia, pre-emergence, 240 h, 0 to 100 scale where 0 is no effect and 100 is complete control, read-out: Kochia plant response rating; for pest or weed control at 31 g/ha: 31 g ai/ha, Preemergence; for pest or weed control at 125 g/ha: 125 g ai/ha, preemergence, approx. 10 d
Summary of the method: as §2

[7] = system: barnyardgrass (Echinochloa crus-galli); assay: Test A preemergence; conditions: Echinochloa crus-galli, pre-emergence, 240 h, Preemergence; for pest or weed control at 31 g/ha: 31 g ai/ha, 0 to 100 scale where 0 is no effect and 100 is complete control, read-out: Barnyardgrass plant response rating; for pest or weed control at 125 g/ha: 125 g ai/ha, visual injury rating after approximately 10 d, read-out: Barnyardgrass plant response rating (0 to 100 scale, 0 is no effect, 100 is complete control)
Summary of the method: as §2

[8] = system: ryegrass, Italian (Italian ryegrass, Lolium multiflorum); assay: Test A preemergence; conditions: Lolium multiflorum, pre-emergence, 240 h, 0 to 100 scale where 0 is no effect and 100 is complete control, read-out: Ryegrass, Italian plant response rating; for pest or weed control at 31 g/ha: 31 g ai/ha, Preemergence; for pest or weed control at 125 g/ha: 125 g ai/ha, preemergence, approx. 10 d
Summary of the method: as §2

[9] = system: pigweed (Amaranthus retroflexus); assay: Test A preemergence; conditions: Amaranthus retroflexus, pre-emergence, 240 h, 0 to 100 scale where 0 is no effect and 100 is complete control, read-out: Pigweed plant response rating; for pest or weed control at 31 g/ha: 31 g ai/ha, Preemergence; for pest or weed control at 125 g/ha: 125 g ai/ha, preemergence, approx. 10 d
[10] = system: ragweed (common ragweed, Ambrosia elatior); assay: Test A preemergence; conditions: Ambrosia artemisiifolia, pre-emergence, 240 h, 0 to 100 scale where 0 is no effect and 100 is complete control, read-out: Ragweed plant response rating; for pest or weed control at 31 g/ha: 31 g ai/ha, Preemergence; for pest or weed control at 125 g/ha: 125 g ai/ha, preemergence, approx. 10 d
Summary of the method: as §2

[11] = system: giant foxtail (Setaria faberii); assay: Test A postemergence; conditions: Setaria faberi, post-emergence, 240 h; for pest or weed control at 125 g/ha: 125 g ai/ha, postemergence, visual injury on 0 to 100 scale (0 no effect, 100 complete control), approx. 10 d, read-out: Foxtail, Giant plant response rating; for pest or weed control at 31 g/ha: Postemergence, 31 g ai/ha, visual injury after approx. 10 d, 0 to 100 scale, 0 no effect, 100 complete control, read-out: Plant response rating, Foxtail, Giant
Summary of the method: as §2

[12] = system: Kochia (Kochia scoparia); assay: Test A postemergence; conditions: Bassia scoparia, post-emergence, 240 h; for pest or weed control at 125 g/ha: 125 g ai/ha, postemergence, visual injury on 0 to 100 scale (0 no effect, 100 complete control), approx. 10 d, read-out: Kochia plant response rating; for pest or weed control at 31 g/ha: Postemergence, 31 g ai/ha, visual injury after approx. 10 d, 0 to 100 scale, 0 no effect, 100 complete control, read-out: Plant response rating, Kochia
Summary of the method: as §2

[13] = system: wheat (Triticum aestivum); assay: Test A postemergence; conditions: Triticum aestivum, post-emergence, 240 h; for plant injury at 125 g/ha: 125 g ai/ha, postemergence, visual injury on 0 to 100 scale (0 no effect, 100 complete control), approx. 10 d, read-out: Wheat plant response rating; for plant injury at 31 g/ha: Postemergence, 31 g ai/ha, visual injury after approx. 10 d, 0 to 100 scale, 0 no effect, 100 complete control, read-out: Plant response rating, Wheat
Summary of the method: as §2

[14] = system: barnyardgrass (Echinochloa crus-galli); assay: Test A postemergence; conditions: Echinochloa crus-galli, post-emergence, 240 h; for pest or weed control at 125 g/ha: 125 g ai/ha, postemergence, visual injury on 0 to 100 scale (0 no effect, 100 complete control), approx. 10 d, read-out: Barnyardgrass plant response rating; for pest or weed control at 31 g/ha: Postemergence, 31 g ai/ha, visual injury after approx. 10 d, 0 to 100 scale, 0 no effect, 100 complete control, read-out: Plant response rating, Barnyardgrass
Summary of the method: as §2

[15] = system: corn (Zea mays); assay: Test A postemergence; conditions: Zea mays, post-emergence, 240 h; for plant injury at 125 g/ha: 125 g ai/ha, postemergence, visual injury on 0 to 100 scale (0 no effect, 100 complete control), approx. 10 d, read-out: Corn plant response rating; for Corn plant response rating (crop injury, 0 = no effect, 100 = complete kill) at 31 g/ha: Postemergence, 31 g ai/ha, visual injury after approx. 10 d, 0 to 100 scale, 100 complete control
Summary of the method: as §2

[16] = system: Galium (catchweed bedstraw, Galium aparine); assay: Test A postemergence; conditions: Galium, post-emergence, 240 h; for pest or weed control at 125 g/ha: 125 g ai/ha, postemergence, visual injury on 0 to 100 scale (0 no effect, 100 complete control), approx. 10 d, read-out: Galium plant response rating; for pest or weed control at 31 g/ha: Postemergence, 31 g ai/ha, visual injury after approx. 10 d, 0 to 100 scale, 0 no effect, 100 complete control, read-out: Plant response rating, Galium
Summary of the method: as §2

[17] = system: ryegrass, Italian (Italian ryegrass, Lolium multiflorum); assay: Test A postemergence; conditions: Lolium multiflorum, post-emergence, 240 h; for pest or weed control at 125 g/ha: 125 g ai/ha, postemergence, visual injury on 0 to 100 scale (0 no effect, 100 complete control), approx. 10 d, read-out: Ryegrass, Italian plant response rating; for pest or weed control at 31 g/ha: Postemergence, 31 g ai/ha, visual injury after approx. 10 d, 0 to 100 scale, 0 no effect, 100 complete control, read-out: Plant response rating, Ryegrass, Italian
Summary of the method: as §2

[18] = system: pigweed (Amaranthus retroflexus); assay: Test A postemergence; conditions: Amaranthus retroflexus, post-emergence, 240 h; for pest or weed control at 125 g/ha: 125 g ai/ha, postemergence, visual injury on 0 to 100 scale (0 no effect, 100 complete control), approx. 10 d, read-out: Pigweed plant response rating; for pest or weed control at 31 g/ha: Postemergence, 31 g ai/ha, visual injury after approx. 10 d, 0 to 100 scale, 0 no effect, 100 complete control, read-out: Plant response rating, Pigweed
Summary of the method: as §2

[19] = system: ragweed (common ragweed, Ambrosia elatior); assay: Test A postemergence; conditions: Ambrosia artemisiifolia, post-emergence, 240 h; for pest or weed control at 125 g/ha: 125 g ai/ha, postemergence, visual injury on 0 to 100 scale (0 no effect, 100 complete control), approx. 10 d, read-out: Ragweed plant response rating; for pest or weed control at 31 g/ha: Postemergence, 31 g ai/ha, visual injury after approx. 10 d, 0 to 100 scale, 0 no effect, 100 complete control, read-out: Plant response rating, Ragweed
Summary of the method: as §2

[20] = system: blackgrass (Alopecurus myosuroides); assay: Test A postemergence; conditions: Alopecurus myosuroides, post-emergence, 240 h; for pest or weed control at 125 g/ha: 125 g ai/ha, postemergence, visual injury on 0 to 100 scale (0 no effect, 100 complete control), approx. 10 d, read-out: Blackgrass plant response rating; for pest or weed control at 31 g/ha: Postemergence, 31 g ai/ha, visual injury after approx. 10 d, 0 to 100 scale, 0 no effect, 100 complete control, read-out: Plant response rating, Blackgrass
Summary of the method: as §2

| SMILES | pest or weed control at 250 g/ha [1] [%] | pest or weed control at 250 g/ha [2] [%] | pest or weed control at 250 g/ha [3] [%] | pest or weed control at 250 g/ha [4] [%] | pest or weed control at 31 g/ha [5] [%] | pest or weed control at 125 g/ha [5] [%] | pest or weed control at 31 g/ha [6] [%] | pest or weed control at 125 g/ha [6] [%] | pest or weed control at 31 g/ha [7] [%] | pest or weed control at 125 g/ha [7] [%] | pest or weed control at 31 g/ha [8] [%] | pest or weed control at 125 g/ha [8] [%] | pest or weed control at 31 g/ha [9] [%] | pest or weed control at 125 g/ha [9] [%] | pest or weed control at 31 g/ha [10] [%] | pest or weed control at 125 g/ha [10] [%] | pest or weed control at 125 g/ha [11] [%] | pest or weed control at 31 g/ha [11] [%] | pest or weed control at 125 g/ha [12] [%] | pest or weed control at 31 g/ha [12] [%] | other results |
| --- | --- | --- | --- | --- | --- | --- | --- | --- | --- | --- | --- | --- | --- | --- | --- | --- | --- | --- | --- | --- | --- |
| COc1cccc([C@H]2CNC(=O)[C@@H]2C(=O)Nc2cccc(F)c2F)c1F [Compound 1061] | 60 | 0 | 15 | 95 | 20 | 70 | 0 | 0 | 40 | 80 | 0 | 0 | 0 | 0 | 0 | 0 | 20 | 0 | 0 | 0 | plant injury at 125 g/ha [13]: 0%; plant injury at 31 g/ha [13]: 0%; pest or weed control at 125 g/ha [14]: 80%; pest or weed control at 31 g/ha [14]: 50%; plant injury at 125 g/ha [15]: 0%; Corn plant response rating (crop injury, 0 = no effect, 100 = complete kill) at 31 g/ha [15]: 0%; pest or weed control at 125 g/ha [16]: 0%; pest or weed control at 31 g/ha [16]: 0%; pest or weed control at 125 g/ha [17]: 0%; pest or weed control at 31 g/ha [17]: 0%; pest or weed control at 125 g/ha [18]: 0%; pest or weed control at 31 g/ha [18]: 0%; pest or weed control at 125 g/ha [19]: 0%; pest or weed control at 31 g/ha [19]: 0%; pest or weed control at 125 g/ha [20]: 0%; pest or weed control at 31 g/ha [20]: 0% |
| Cc1ccncc1NC(=O)[C@H]1C(=O)N(C)C[C@@H]1c1cccc(C(F)(F)F)c1 [Compound 1069] | 20 | 0 | 0 | 35 | 0 | 50 | 0 | 0 | 0 | 0 | 0 | 0 | 0 | 0 | 0 | 0 | 0 | 0 | 0 | 0 | plant injury at 125 g/ha [13]: 0%; plant injury at 31 g/ha [13]: 0%; pest or weed control at 125 g/ha [14]: 0%; pest or weed control at 31 g/ha [14]: 0%; plant injury at 125 g/ha [15]: 0%; Corn plant response rating (crop injury, 0 = no effect, 100 = complete kill) at 31 g/ha [15]: 0%; pest or weed control at 125 g/ha [16]: 0%; pest or weed control at 31 g/ha [16]: 0%; pest or weed control at 125 g/ha [17]: 0%; pest or weed control at 31 g/ha [17]: 0%; pest or weed control at 125 g/ha [18]: 0%; pest or weed control at 31 g/ha [18]: 0%; pest or weed control at 125 g/ha [19]: 0%; pest or weed control at 31 g/ha [19]: 0%; pest or weed control at 125 g/ha [20]: 0%; pest or weed control at 31 g/ha [20]: 0% |
